Laboratory results from article PMC7062746, “X-ray Crystallography and Electron Paramagnetic Resonance Spectroscopy Reveal Active Site Rearrangement of Cold-Adapted Inorganic Pyrophosphatase” (Scientific Reports, 2020).

Molecular target: T1, Sh-PPase (Mn-Sh-PPase; Mg-Sh-PPase) (Shewanella sp. AS-11, UniProt L8AXY8)
T1 construct: gene ppia; recombinant full-length (no tag stated), expressed in E. coli BL21 (DE3); ammonium sulphate fractionation, anion exchange, gel filtration; family II PPases are homodimers
T1 sequence (L8AXY8 2-308): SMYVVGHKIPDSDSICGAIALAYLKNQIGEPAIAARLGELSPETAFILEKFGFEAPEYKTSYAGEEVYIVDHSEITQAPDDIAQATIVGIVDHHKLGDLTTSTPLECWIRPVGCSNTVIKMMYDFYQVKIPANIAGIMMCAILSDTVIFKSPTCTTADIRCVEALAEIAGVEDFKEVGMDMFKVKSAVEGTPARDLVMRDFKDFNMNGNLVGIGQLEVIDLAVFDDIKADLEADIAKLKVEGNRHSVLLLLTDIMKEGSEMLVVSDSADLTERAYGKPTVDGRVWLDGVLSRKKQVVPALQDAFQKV
Experiment: CW X-band EPR of the di-Mn centre
Type: binding
Details: Mn-activated enzyme, pH 7.5, frozen solution

| Compound | CW X-band EPR of the di-Mn centre (substrate analogue, di-Mn centre signal lost on binding (inferred binding)) | CW X-band EPR of the di-Mn centre (added as ammonium sulphate, substrate binding site) |
| --- | --- | --- |
| O=P(O)(O)CP(=O)(O)O [PCP, methylendiphosphonic acid] | binding of PCP induced the decomposition of the di-Mn centre | – |
| O=S(=O)(O)O [sulphate] | – | sulphate ion bound correctly to the substrate binding site |
